Measurements reported in patent US5703056A, “Non-invasive imaging of gene transfer” (priority 1995, dated 1997).
Converted amounts (≈) assume the structure as drawn. Read-outs that look alike come from different tables or passages of the source.

Assays:
[1] = system: RG2 cells; experiment: Ganciclovir sensitivity assay (methyl-[3H]-thymidine accumulation, percent of control); assay type: cell-based; conditions: Rattus norvegicus; naive RG2 cells; read-out: ganciclovir ED50
Procedure: (§1) Sensitivity to ganciclovir and selection of "high" and "low" sensitivity clones. […] Following one day of growth, the culture medium of RG2TK+ and RG2 cells in Costar™ 96-well plates was replaced with ganciclovir™-containing medium (Cytovene™; Syntax Laboratories, Inc.; Palo Alto, Calif.) in the following concentrations: 3, 1, 0.6, 0.3, 0.1, 0.06, 0.03, 0.01, 0,006, 0.003, 0.001, 0.0006, 0.0003, 0.0001, 0.00006 mg/ml and ganciclovir™-free control media. The ganciclovir™-containing and control incubation media were changed daily. […] Radioactivity measured in each ganciclovir™-containing well was expressed as a percent of control (ganciclovir™-free) activity.

[2] = system: RG2TK+ cells; experiment: as above; assay type: cell-based, rat; conditions: for IC50: Rattus norvegicus, read-out: ganciclovir ED50
Procedure: Transduction of the HSV1-TK gene into RG2 cells. The STK retrovirus was obtained from filtered (0.1 μm) supernatants of gp-STK-A2 producer cell line cultures grown from a 50% confluent monolayer over 24 hours in Dulbecco's high-glucose medium with 10% bovine serum. Transduction of RG2 cells was accomplished by exposing the cell monolayer to the filtrate for 8 hours in the presence of Polybrene™ (8 μg/ml). Following a 24 hour incubation in standard medium, a selection medium containing Geneticin™ disulfate (800 μg/ml) was used to eliminate cells not expressing the neomycin resistance gene. The selection medium was changed daily to remove dead cells. After 7 days, a bulk culture of transduced RG2 cells (RG2TK+) was harvested for further propogation.
as §1

[3] = target: HSV1-TK (Human alphaherpesvirus 1 strain 17, UniProt P0DTH5); experiment: Accumulation of radiolabelled marker substrates in RG2TK+ transduced and RG2 wild-type cells, normalized to TdR; assay type: cell-based, herpes simplex virus
Procedure: Source of radiolabelled "marker substrates". […] No carrier-added 5-[^123 I]-deoxyuridine (IUdR) was prepared by reacting 2-deoxyuridine (UdR) with carrier-free ^123 I-labelled sodium iodide in an iodogen coated reaction vial.
Comparison of "marker substrates" for identifying HSV1-tk gene expression in tissue culture. […] Each of these substrates were developed for or used as an anti-viral agent; they are phosphorylated by HSV1-TK and can be radiolabelled for noninvasive imaging.
Wild-type (nontransduced) RG2 cells were studied as a reference control. […] The cells were dislodged from the Petri dishes with a soft scraper, poured into 15 ml conical tubes, centrifuged and the medium aspirated. The tubes were cut to facilitate removing cells; they were blotted, placed in pre-weighed vials, weighed and prepared for counting. Samples were assayed for ^3 H- and ^14 C-radioactivity using a Packard B1600 TriCarb beta spectrometer using dual-channel and external standard splash and quench correction techniques. The medium was also counted before and following incubation. The data was expressed as a harvested cell-to-medium concentration ratio (dpm/g cells.div.dpm/ml medium).
Data analysis. […] These two related measures are useful to evaluate the intensity of the images (e.g., high "sensitivity") and the ability to differentiate between HSV1-TK and endogenous-TK in the images (e.g., high "selectivity"). The "selectivity" measure is not interpreted as a relative sensitivity (i.e., a value of 1 indicating equal sensitivity) of the substrate to HSV1-TK vs. endogenous-TK. […] They are intended for the direct comparison of substrates only.

HSV1-TK, sequence (P0DTH5 whole entry): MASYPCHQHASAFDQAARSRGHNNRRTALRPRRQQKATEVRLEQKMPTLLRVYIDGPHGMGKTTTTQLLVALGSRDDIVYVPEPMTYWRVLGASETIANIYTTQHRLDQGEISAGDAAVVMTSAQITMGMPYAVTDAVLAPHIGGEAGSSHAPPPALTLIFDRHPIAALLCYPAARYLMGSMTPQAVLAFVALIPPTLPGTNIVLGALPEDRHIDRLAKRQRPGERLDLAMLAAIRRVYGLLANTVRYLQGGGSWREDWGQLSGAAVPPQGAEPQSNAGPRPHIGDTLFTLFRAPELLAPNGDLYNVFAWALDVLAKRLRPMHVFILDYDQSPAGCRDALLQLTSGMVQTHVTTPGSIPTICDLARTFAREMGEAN

Nc1nc2c(ncn2COC(CO)CO)c(=O)[nH]1 [ganciclovir, 9-(1,3-dihydroxy-2-propoxymethyl)-guanine]
IC50 [1]: 200 µg/mL (≈ 784 µM) | fold more sensitive to ganciclovir compared to bulk RG2TK+ cells ([2]; "high" sensitivity RG2TK+ clones (clone #16) vs bulk RG2TK+): 5 fold | fold less sensitive to ganciclovir compared to bulk RG2TK+ cells ([2]; "low" sensitivity RG2TK+ clones vs bulk RG2TK+): roughly 30 fold | IC50 ([2]; "high-sensitivity" RG2TK+ clone #16): ~0.2 µg/mL (≈ 0.784 µM) | IC50 ([2]; "low-sensitivity" RG2TK+ clone #32): ~30 µg/mL (≈ 118 µM) | IC50 ([2]; bulk culture of transduced RG2TK+ cells): 1 µg/mL (≈ 3.92 µM) | fold more sensitive to ganciclovir than RG2 cells ([2]; bulk RG2TK+ cells vs wild-type RG2 cells): approximately 200 fold | fold more sensitive to ganciclovir than wild-type RG2 cells ([2]; high-sensitivity RG2TK+ clone #16 vs wild-type RG2): approximately 1000 fold | Selectivity+ Sensitivity*/(substrate/TdR) for RG2 ([3]; Data from FIG. 5): 0.143 | Sensitivity* Δ(substrate/TdR)/Δ(HSV1TK mRNA/S28 RNA IOD) ([3]; Data from FIG. 5): 0.0004 | accumulation of ganciclovir by RG2TK+ cells compared to that of FIAU ([3]; RG2TK+ cells): less than 5% | accumulation of ganciclovir by RG2TK+ cells compared to that of IUdR ([3]; RG2TK+ cells): < 3% | accumulation in bulk RG2TK+ cells relative to wild-type RG2 cells ([3]; normalized to TdR, FIGS. 4 and 5B): 5.6 fold
